Data reported in ChEMBL document CHEMBL5614392, “Discovery of novel N2-indazole derivatives as phosphodiesterase 4 inhibitors for the treatment of inflammatory bowel disease” (Eur J Med Chem, 2024).
Active and inactive are the calls of the source. The calls are words filed in the database; no cut-off is given here.

Experiments:
[1] = molecular target: T1, 3',5'-cyclic-AMP phosphodiesterase 4D (Homo sapiens, UniProt Q08499); experiment: Inhibition of PDE4D7 (unknown origin) using FAM-cyclic-3'5'-AMP as substrate at 100 nM incubated for 1 hrs by fluorescence polarization assay relative to control
T1 sequence (Q08499 whole entry): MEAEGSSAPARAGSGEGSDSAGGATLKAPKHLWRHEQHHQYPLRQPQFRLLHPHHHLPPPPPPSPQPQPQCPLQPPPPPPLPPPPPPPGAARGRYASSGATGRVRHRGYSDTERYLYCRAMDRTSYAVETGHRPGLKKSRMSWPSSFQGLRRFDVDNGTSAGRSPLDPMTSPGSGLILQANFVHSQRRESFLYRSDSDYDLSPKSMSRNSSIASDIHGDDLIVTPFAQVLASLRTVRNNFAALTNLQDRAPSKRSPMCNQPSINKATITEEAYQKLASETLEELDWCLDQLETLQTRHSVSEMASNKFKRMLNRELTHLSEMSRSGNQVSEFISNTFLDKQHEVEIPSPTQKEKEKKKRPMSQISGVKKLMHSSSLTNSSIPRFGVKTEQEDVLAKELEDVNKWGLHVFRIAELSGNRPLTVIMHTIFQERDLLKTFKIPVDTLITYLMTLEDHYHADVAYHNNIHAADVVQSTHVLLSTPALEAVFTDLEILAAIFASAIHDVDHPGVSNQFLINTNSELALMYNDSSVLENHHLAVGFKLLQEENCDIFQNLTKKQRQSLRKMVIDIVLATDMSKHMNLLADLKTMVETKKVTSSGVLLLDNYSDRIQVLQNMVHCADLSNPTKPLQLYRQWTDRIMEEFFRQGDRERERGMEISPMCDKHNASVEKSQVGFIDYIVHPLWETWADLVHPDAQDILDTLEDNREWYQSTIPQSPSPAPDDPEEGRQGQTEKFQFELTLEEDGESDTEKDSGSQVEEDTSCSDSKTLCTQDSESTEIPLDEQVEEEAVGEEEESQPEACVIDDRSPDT

[2] = Acute toxicity in male C57BL/6J mouse assessed as animal death at 1 g/Kg, po administered for 14 days; type: organism-based; settings: in vivo, 1000 mg/kg, 336 h, time 14 day
[3] = molecular target: High affinity cGMP-specific 3',5'-cyclic phosphodiesterase 9A (Homo sapiens) (UniProt O76083); experiment: Inhibition of PDE9A (unknown origin) using FAM-cyclic-3'5'-AMP as substrate at 10 uM incubated for 1 hrs by fluorescence polarization assay relative to control
High affinity cGMP-specific 3',5'-cyclic phosphodiesterase 9A (Homo sapiens), sequence (O76083 whole entry): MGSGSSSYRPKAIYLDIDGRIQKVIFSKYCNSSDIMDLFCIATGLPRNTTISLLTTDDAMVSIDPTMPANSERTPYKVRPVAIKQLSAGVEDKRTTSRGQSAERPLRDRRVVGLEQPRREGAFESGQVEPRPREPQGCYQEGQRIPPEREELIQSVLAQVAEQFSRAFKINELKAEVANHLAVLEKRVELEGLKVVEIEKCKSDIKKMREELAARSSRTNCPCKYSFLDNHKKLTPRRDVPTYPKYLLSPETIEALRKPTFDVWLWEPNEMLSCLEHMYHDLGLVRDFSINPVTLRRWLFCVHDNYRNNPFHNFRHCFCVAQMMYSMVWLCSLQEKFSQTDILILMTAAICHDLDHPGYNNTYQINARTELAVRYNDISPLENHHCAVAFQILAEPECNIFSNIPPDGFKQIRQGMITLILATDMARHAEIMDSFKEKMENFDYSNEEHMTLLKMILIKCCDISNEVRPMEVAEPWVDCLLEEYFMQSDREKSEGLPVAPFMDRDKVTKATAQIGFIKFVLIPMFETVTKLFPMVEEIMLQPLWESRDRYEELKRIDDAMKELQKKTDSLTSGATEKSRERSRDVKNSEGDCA

[4] = system: Mus musculus; experiment: Antiinflammatory activity against DSS-induced colitis C57BL/6J mouse model assessed as increase in colon length at 3 to 10 mg/kg, po pretreated with DSS for 10 days followed by twice daily compound administration for 8 days starting from day 3 to day 10; type: functional, organism-based; settings: dose 3-10 mg/kg, time 8.0 day
[5] = system: Mus musculus; experiment: (§1) Antiinflammatory activity against DSS-induced colitis C57BL/6J mouse model assessed as reduction in mucosal damage in colon at 3 to 10 mg/kg, po pretreated with DSS for 10 days followed by twice daily compound administration for 8 days starting from day 3 to day 10 by H and E staining based analysis; type: functional, organism-based; settings: dose 3-10 mg/kg, time 8.0 day
[6] = system: Mus musculus; experiment: as §1, with “crypt structure loss” for “mucosal damage”; type: functional, organism-based; settings: dose 3-10 mg/kg, time 8.0 day
[7] = molecular target: T1, 3',5'-cyclic-AMP phosphodiesterase 4D; experiment: Inhibition of PDE4D7 (unknown origin) using FAM-cyclic-3'5'-AMP as substrate incubated for 1 hrs by fluorescence polarization assay
[8] = system: RAW264.7; experiment: Antiinflammatory activity against mouse RAW264.7 cells assessed as inhibition of LPS-induced IL-6 mRNA production at 10 uM incubated for 24 hrs by SYBR green quantitative PCR analysis; type: functional, cell-based
[9] = Oral bioavailability in male C57BL/6J mouse; type: ADME, organism-based; settings: in vivo
[10] = system: Mus musculus; experiment: as §1, with “inflammatory cell infiltration” for “mucosal damage”; type: functional, organism-based; settings: dose 3-10 mg/kg, time 8.0 day
[11] = Acute toxicity in male C57BL/6J mouse assessed as body weight loss at 1 g/Kg, po administered for 14 days; type: organism-based; settings: in vivo, 1000 mg/kg, 336 h, time 14 day
[12] = system: Mus musculus; experiment: Antiinflammatory activity against DSS-induced colitis C57BL/6J mouse model assessed as decrease in disease activity index at 10 mg/kg, po pretreated with DSS for 10 days followed by twice daily compound administration for 8 days starting from day 3 to day 10 relative to control; type: functional, organism-based; settings: time 8.0 day
[13] = Selectivity ratio of IC50 for PDE9A (unknown origin) to IC50 for PDE4D (unknown origin)
[14] = Selectivity ratio of IC50 for PDE7A (unknown origin) to IC50 for PDE4D (unknown origin)
[15] = molecular target: 3',5'-cyclic-AMP phosphodiesterase 4B (Homo sapiens, UniProt Q07343); experiment: Inhibition of PDE4B (unknown origin) using FAM-cyclic-3'5'-AMP as substrate incubated for 1 hrs by fluorescence polarization assay
3',5'-cyclic-AMP phosphodiesterase 4B, sequence (Q07343 whole entry): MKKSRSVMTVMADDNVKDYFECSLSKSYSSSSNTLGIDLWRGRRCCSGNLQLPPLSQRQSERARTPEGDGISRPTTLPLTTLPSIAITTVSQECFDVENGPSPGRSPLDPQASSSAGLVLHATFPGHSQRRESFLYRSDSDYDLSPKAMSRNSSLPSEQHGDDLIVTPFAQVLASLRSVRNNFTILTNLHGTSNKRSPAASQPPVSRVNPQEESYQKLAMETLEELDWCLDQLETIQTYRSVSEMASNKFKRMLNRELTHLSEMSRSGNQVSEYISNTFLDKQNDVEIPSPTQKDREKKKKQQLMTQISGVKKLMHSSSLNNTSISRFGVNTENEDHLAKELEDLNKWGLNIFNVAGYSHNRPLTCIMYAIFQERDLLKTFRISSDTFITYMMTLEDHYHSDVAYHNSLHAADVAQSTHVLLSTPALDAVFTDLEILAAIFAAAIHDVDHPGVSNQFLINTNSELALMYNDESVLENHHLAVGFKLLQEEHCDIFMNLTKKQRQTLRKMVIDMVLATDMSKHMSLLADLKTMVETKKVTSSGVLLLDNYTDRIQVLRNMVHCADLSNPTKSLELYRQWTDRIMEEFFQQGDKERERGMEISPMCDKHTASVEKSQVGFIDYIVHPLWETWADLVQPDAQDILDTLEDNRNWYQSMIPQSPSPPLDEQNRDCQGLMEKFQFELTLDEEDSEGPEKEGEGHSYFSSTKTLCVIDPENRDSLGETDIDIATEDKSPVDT

[16] = molecular target: High affinity cAMP-specific and IBMX-insensitive 3',5'-cyclic phosphodiesterase 8A (Homo sapiens) (UniProt O60658); experiment: Inhibition of PDE8A (unknown origin) using FAM-cyclic-3'5'-AMP as substrate at 10 uM incubated for 1 hrs by fluorescence polarization assay relative to control
High affinity cAMP-specific and IBMX-insensitive 3',5'-cyclic phosphodiesterase 8A (Homo sapiens), sequence (O60658 whole entry): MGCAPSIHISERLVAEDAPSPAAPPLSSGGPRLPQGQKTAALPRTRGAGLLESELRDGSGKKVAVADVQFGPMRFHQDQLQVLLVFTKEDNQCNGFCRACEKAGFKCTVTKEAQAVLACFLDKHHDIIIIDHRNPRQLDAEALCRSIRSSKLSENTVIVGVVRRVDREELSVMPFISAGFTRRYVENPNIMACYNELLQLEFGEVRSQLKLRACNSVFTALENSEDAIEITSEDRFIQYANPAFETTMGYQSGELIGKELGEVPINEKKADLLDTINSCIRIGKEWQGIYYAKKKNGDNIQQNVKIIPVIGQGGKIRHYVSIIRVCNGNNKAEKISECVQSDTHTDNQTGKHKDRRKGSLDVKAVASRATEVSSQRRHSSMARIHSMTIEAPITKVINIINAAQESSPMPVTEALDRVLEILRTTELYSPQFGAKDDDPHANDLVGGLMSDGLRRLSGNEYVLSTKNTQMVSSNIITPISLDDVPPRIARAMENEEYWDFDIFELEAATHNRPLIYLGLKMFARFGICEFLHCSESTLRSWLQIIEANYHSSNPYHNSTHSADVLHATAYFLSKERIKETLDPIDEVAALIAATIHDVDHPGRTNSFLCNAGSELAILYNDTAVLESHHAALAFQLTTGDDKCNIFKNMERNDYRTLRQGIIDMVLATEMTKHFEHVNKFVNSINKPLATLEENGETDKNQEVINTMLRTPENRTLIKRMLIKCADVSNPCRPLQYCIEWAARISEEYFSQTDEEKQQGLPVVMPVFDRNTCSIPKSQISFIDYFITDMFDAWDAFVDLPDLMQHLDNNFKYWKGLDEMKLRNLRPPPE

[17] = system: Mus musculus; experiment: Antiinflammatory activity against DSS-induced colitis C57BL/6J mouse model assessed as decrease in body weight loss at 10 mg/kg, po pretreated with DSS for 10 days followed by twice daily compound administration for 8 days starting from day 3 to day 10 relative to control; type: functional; set-up: scale not given: the % may be the effect or the level left; settings: time 8 day
[18] = system: RAW264.7; experiment: Antiinflammatory activity against mouse RAW264.7 cells assessed as inhibition of LPS-induced TNF-alpha mRNA production at 10 uM incubated for 24 hrs by SYBR green quantitative PCR analysis; type: functional, cell-based
[19] = system: Mus musculus; experiment: Antiinflammatory activity against DSS-induced colitis C57BL/6J mouse model assessed as decrease in body weight loss at 10 mg/kg, po pretreated with DSS for 10 days followed by twice daily compound administration for 8 days starting from day 3 to day 10 and measured on day 6; type: functional, organism-based; settings: time 4.0 day
[20] = system: HT-22; experiment: Cytotoxicity against mouse HT-22 cells at 10 to 30 uM; type: toxicity, cell-based; settings: ht-22, 30 µM, dose 10-30 µM
[21] = molecular target: T1, 3',5'-cyclic-AMP phosphodiesterase 4D; experiment: Inhibition of PDE4D7 (unknown origin) using FAM-cyclic-3'5'-AMP as substrate at 10 nM incubated for 1 hrs by fluorescence polarization assay relative to control
[22] = Selectivity ratio of IC50 for PDE8A (unknown origin) to IC50 for PDE4D (unknown origin)
[23] = molecular target: High affinity 3',5'-cyclic-AMP phosphodiesterase 7A (Homo sapiens) (UniProt Q13946); experiment: Inhibition of PDE7A (unknown origin) using FAM-cyclic-3'5'-AMP as substrate at 10 uM incubated for 1 hrs by fluorescence polarization assay relative to control
High affinity 3',5'-cyclic-AMP phosphodiesterase 7A (Homo sapiens), sequence (Q13946 whole entry): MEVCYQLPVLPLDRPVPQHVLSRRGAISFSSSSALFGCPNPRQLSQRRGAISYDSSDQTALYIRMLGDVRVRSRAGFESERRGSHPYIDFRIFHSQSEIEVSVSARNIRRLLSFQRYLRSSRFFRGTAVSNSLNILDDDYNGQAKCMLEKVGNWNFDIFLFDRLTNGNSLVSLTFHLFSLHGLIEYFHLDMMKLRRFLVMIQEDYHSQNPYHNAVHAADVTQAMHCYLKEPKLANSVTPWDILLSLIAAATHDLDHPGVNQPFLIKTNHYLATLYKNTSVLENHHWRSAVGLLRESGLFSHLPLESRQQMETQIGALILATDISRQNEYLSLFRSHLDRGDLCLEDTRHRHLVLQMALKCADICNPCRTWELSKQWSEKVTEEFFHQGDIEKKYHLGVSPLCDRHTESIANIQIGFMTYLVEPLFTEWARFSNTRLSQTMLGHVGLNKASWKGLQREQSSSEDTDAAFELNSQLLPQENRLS

[24] = molecular target: cGMP-inhibited 3',5'-cyclic phosphodiesterase 3B (Homo sapiens) (UniProt Q13370); experiment: Inhibition of PDE3B (unknown origin) using FAM-cyclic-3'5'-AMP as substrate at 10 uM incubated for 1 hrs by fluorescence polarization assay relative to control
cGMP-inhibited 3',5'-cyclic phosphodiesterase 3B (Homo sapiens), sequence (Q13370 whole entry, looked up): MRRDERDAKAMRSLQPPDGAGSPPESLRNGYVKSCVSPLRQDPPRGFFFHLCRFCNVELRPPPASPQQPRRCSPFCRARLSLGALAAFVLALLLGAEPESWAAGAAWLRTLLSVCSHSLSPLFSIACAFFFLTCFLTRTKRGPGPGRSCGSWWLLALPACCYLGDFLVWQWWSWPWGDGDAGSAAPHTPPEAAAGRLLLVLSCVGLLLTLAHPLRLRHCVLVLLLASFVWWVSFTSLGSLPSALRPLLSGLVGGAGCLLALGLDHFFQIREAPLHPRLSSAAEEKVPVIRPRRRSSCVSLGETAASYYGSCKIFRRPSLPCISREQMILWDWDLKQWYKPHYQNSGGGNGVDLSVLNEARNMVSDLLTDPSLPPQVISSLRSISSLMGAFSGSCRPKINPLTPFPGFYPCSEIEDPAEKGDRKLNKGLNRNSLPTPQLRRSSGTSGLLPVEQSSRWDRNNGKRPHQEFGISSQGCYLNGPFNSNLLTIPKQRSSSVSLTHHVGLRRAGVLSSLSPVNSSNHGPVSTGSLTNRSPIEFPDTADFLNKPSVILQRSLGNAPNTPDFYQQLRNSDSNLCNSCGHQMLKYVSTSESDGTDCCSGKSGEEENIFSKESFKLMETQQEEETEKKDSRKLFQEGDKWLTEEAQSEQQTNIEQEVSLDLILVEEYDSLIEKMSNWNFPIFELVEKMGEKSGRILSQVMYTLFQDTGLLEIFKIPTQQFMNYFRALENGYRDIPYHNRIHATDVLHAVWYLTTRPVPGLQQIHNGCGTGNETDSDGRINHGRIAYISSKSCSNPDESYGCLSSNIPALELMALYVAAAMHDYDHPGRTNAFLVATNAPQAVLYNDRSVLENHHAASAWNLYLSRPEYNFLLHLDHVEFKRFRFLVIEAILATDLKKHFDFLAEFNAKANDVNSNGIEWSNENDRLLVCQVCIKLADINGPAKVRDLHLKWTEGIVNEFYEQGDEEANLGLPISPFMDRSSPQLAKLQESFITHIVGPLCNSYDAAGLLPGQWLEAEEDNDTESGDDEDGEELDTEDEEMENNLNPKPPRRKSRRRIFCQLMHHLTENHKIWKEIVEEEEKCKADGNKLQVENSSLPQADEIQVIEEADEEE

[25] = system: Mus musculus; experiment: as §1, with “lamina propria breakdown” for “mucosal damage”; type: functional, organism-based; settings: dose 3-10 mg/kg, time 8.0 day
[26] = system: RAW264.7; experiment: Antiinflammatory activity against mouse RAW264.7 cells assessed as inhibition of LPS-induced iNOS mRNA production at 10 uM incubated for 24 hrs by SYBR green quantitative PCR analysis; type: functional, cell-based
[27] = Toxicity in ketamine/xylazine-induced anesthetic male C57BL/6J mouse model assessed as emetogenic potential by measuring reduction in anesthesia duration at 5 to 10 mg/kg, po preadministered with compound for 15 mins followed by ketamine/xylazine administration; type: organism-based; settings: in vivo, 0.25 h, dose 5-10 mg/kg
[28] = Selectivity ratio of IC50 for PDE3B (unknown origin) to IC50 for PDE4D (unknown origin)
[29] = system: Mus musculus; experiment: Antiinflammatory activity against DSS-induced colitis C57BL/6J mouse model assessed as decrease in body weight loss at 3 mg/kg, po pretreated with DSS for 10 days followed by twice daily compound administration for 8 days starting from day 3 to day 10 relative to control; type: functional; set-up: scale not given: the % may be the effect or the level left; settings: time 8 day
[30] = molecular target: T1, 3',5'-cyclic-AMP phosphodiesterase 4D; experiment: Inhibition of PDE4D (unknown origin) using FAM-cyclic-3'5'-AMP as substrate incubated for 1 hrs by fluorescence polarization assay

With `COc1cc(-c2ccc(OC(F)F)c3nn(C4CC4)cc23)cc(OC)c1OC` the inhibition [1] was 86%, the Activity [2] was “Non-Toxic” and the inhibition [3] was 7%. For the same compound, the Activity [4] was “Active”, the Activity [5] was “Active” and the Activity [6] was “Active”. The IC50 [7] was 0.0105 µM, the Activity [8] was “Active” and the bioavailability [9] was 5%. The Activity [10] was “Active”, the Activity [11] was “Non-Toxic” and the Activity [12] was “Active”. The Ratio IC50 [13] was > 156, the Ratio IC50 [14] was > 156 and the IC50 [15] was 0.0644 µM. The inhibition [16] was 12%, the Activity [17] was 4.9% and the Activity [18] was “Active”. For the same compound, the Activity [19] was “Active”, the Activity [20] was “Non-Toxic” and the inhibition [21] was 42%. The Ratio IC50 [22] was > 156, the inhibition [23] was 14% and the inhibition [24] was 6%. For the same compound, the Activity [25] was “Active”, the Activity [26] was “Active” and the Activity [27] was “Non-Toxic”. The Ratio IC50 [28] was > 156, the Activity [29] was 16.7% and the IC50 [30] was 0.0657 µM.
